“And” between values parts separate entries of the source, which are not always exact repeats. Equal values may be shown once.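 How tested: cells in 96-well plates exposed to compound for 48 hours at five concentrations. GI50 = concentration required for 50% inhibition of growth. TGI marks complete inhibition of growth.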
How the values were obtained:
Assay in all cases: NCI anticancer screen, dose series, 48 h
SF-539 CNS = tested on: SF-539 CNS
HOP-62 NSCLC = tested on: HOP-62 NSCLC
SN12C renal = tested on: SN12C renal
MDA-MB-231 breast = tested on: MDA-MB-231 breast
OVCAR-8 ovarian = tested on: OVCAR-8 ovarian
UO-31 renal = tested on: UO-31 renal
TK-10 renal = tested on: TK-10 renal
HCT-116 colon = tested on: HCT-116 colon
K-562 leukemia = tested on: K-562 leukemia
COLO 205 colon = tested on: COLO 205 colon
A498 renal = tested on: A498 renal
LOX IMVI melanoma = tested on: LOX IMVI melanoma
DU-145 prostate = tested on: DU-145 prostate
RPMI-8226 leukemia = tested on: RPMI-8226 leukemia
MOLT-4 leukemia = tested on: MOLT-4 leukemia
KM12 colon = tested on: KM12 colon
MDA-MB-435 = tested on: MDA-MB-435
CCRF-CEM leukemia = tested on: CCRF-CEM leukemia
EKVX NSCLC = tested on: EKVX NSCLC
HS 578T breast = tested on: HS 578T breast
SW-620 colon = tested on: SW-620 colon
RXF 393 renal = tested on: RXF 393 renal
BT-549 breast = tested on: BT-549 breast
HL-60(TB) leukemia = tested on: HL-60(TB) leukemia
SK-MEL-2 melanoma = tested on: SK-MEL-2 melanoma
IGROV1 ovarian = tested on: IGROV1 ovarian
M14 melanoma = tested on: M14 melanoma
PC-3 prostate = tested on: PC-3 prostate
HOP-92 NSCLC = tested on: HOP-92 NSCLC
786-0 renal = tested on: 786-0 renal
MCF7 breast = tested on: MCF7 breast
SR leukemia = tested on: SR leukemia
OVCAR-3 ovarian = tested on: OVCAR-3 ovarian
NCI-H226 lung = tested on: NCI-H226 lung
T-47D breast = tested on: T-47D breast
SF-295 CNS = tested on: SF-295 CNS
A549 NSCLC = tested on: A549 NSCLC
NCI-H23 lung = tested on: NCI-H23 lung
MALME-3M melanoma = tested on: MALME-3M melanoma
SK-MEL-5 melanoma = tested on: SK-MEL-5 melanoma
SNB-75 CNS = tested on: SNB-75 CNS
OVCAR-4 ovarian = tested on: OVCAR-4 ovarian
SNB-19 CNS = tested on: SNB-19 CNS
NCI-H460 lung = tested on: NCI-H460 lung
SF-268 CNS = tested on: SF-268 CNS
OVCAR-5 ovarian = tested on: OVCAR-5 ovarian
HCT-15 colon = tested on: HCT-15 colon
CAKI-1 renal = tested on: CAKI-1 renal
HT29 colon = tested on: HT29 colon
UACC-62 melanoma = tested on: UACC-62 melanoma
U251 CNS = tested on: U251 CNS
NCI/ADR-RES ovarian = tested on: NCI/ADR-RES ovarian
UACC-257 melanoma = tested on: UACC-257 melanoma
HCC-2998 colon = tested on: HCC-2998 colon
SK-OV-3 ovarian = tested on: SK-OV-3 ovarian
SK-MEL-28 melanoma = tested on: SK-MEL-28 melanoma
NCI-H522 lung = tested on: NCI-H522 lung
ACHN renal = tested on: ACHN renal

## CN1CCN(c2ccc(C(=O)Nc3n[nH]c4ccc(Cc5cc(F)cc(F)c5)cc34)c(NC3CCOCC3)c2)CC1
SF-539 CNS
  GI50: 2660 nM and 1560 nM
  TGI: > 10000 nM and 2920 nM
HOP-62 NSCLC
  GI50: 2660 nM
  TGI: > 10000 nM
SN12C renal
  GI50: 2600 nM and 1340 nM
  TGI: > 10000 nM and 2930 nM
MDA-MB-231 breast
  GI50: 1890 nM and 1500 nM
  TGI: 5510 nM and 3060 nM
OVCAR-8 ovarian
  GI50: 1730 nM
  TGI: > 10000 nM and 3480 nM
UO-31 renal
  GI50: 1030 nM and 1170 nM
  TGI: 2280 nM and 2610 nM
TK-10 renal
  GI50: 2350 nM and 1420 nM
  TGI: > 10000 nM and 2780 nM
HCT-116 colon
  GI50: 1530 nM and 1360 nM
  TGI: 3270 nM and 2730 nM
K-562 leukemia
  GI50: 1780 nM and 1690 nM
  TGI: 4830 nM and 3610 nM
COLO 205 colon
  GI50: 1480 nM
  TGI: 3100 nM
A498 renal
  GI50: 1770 nM and 846 nM
  TGI: 6850 nM and 2240 nM
LOX IMVI melanoma
  GI50: 1350 nM and 1340 nM
  TGI: 2700 nM and 2690 nM
DU-145 prostate
  GI50: 4220 nM and 1650 nM
  TGI: > 10000 nM and 3040 nM
RPMI-8226 leukemia
  GI50: 2300 nM and 1860 nM
  TGI: 7020 nM and 4390 nM
MOLT-4 leukemia
  GI50: 2180 nM and 1820 nM
  TGI: 7180 nM and 4420 nM
KM12 colon
  GI50: 4.36 nM
  TGI: 1490 nM and 1120 nM
MDA-MB-435
  GI50: 1390 nM and 1490 nM
  TGI: 2860 nM and 3130 nM
CCRF-CEM leukemia
  GI50: 2930 nM and 2050 nM
  TGI: > 10000 nM and 5160 nM
EKVX NSCLC
  GI50: 3070 nM
  TGI: > 10000 nM
HS 578T breast
  GI50: 1230 nM and 1210 nM
  TGI: 4370 nM and 3220 nM
SW-620 colon
  GI50: 1320 nM and 1330 nM
  TGI: 3440 nM and 2760 nM
RXF 393 renal
  GI50: 1170 nM
  TGI: 2690 nM
BT-549 breast
  GI50: 5610 nM and 1800 nM
  TGI: > 10000 nM and 3280 nM
HL-60(TB) leukemia
  GI50: 1830 nM and 1660 nM
  TGI: 4190 nM and 3380 nM
SK-MEL-2 melanoma
  GI50: 4500 nM and 1860 nM
  TGI: > 10000 nM and 3530 nM
IGROV1 ovarian
  GI50: 641 nM and 1300 nM
  TGI: 3000 nM and 2720 nM
M14 melanoma
  GI50: 1580 nM and 1690 nM
  TGI: 3200 nM and 3400 nM
PC-3 prostate
  GI50: 2830 nM and 1380 nM
  TGI: > 10000 nM and 2990 nM
HOP-92 NSCLC
  GI50: 446 nM and 1040 nM
  TGI: 3030 nM and 2400 nM
786-0 renal
  GI50: 1410 nM and 1310 nM
  TGI: 2990 nM and 2620 nM
MCF7 breast
  GI50: 983 nM and 485 nM
  TGI: 5730 nM and 1930 nM
SR leukemia
  GI50: 73.4 nM and 31.2 nM
  TGI: 2150 nM and 1690 nM
OVCAR-3 ovarian
  GI50: 3330 nM and 1470 nM
  TGI: > 10000 nM and 2840 nM
NCI-H226 lung
  GI50: 1470 nM and 1360 nM
  TGI: > 10000 nM and 3110 nM
T-47D breast
  GI50: 1990 nM
  TGI: > 10000 nM
SF-295 CNS
  GI50: 3940 nM and 1450 nM
  TGI: > 10000 nM and 3110 nM
A549 NSCLC
  GI50: 2500 nM and 1300 nM
  TGI: > 10000 nM and 2720 nM
NCI-H23 lung
  GI50: 2630 nM and 1610 nM
  TGI: > 10000 nM and 3540 nM
MALME-3M melanoma
  GI50: 1500 nM
  TGI: 3010 nM
SK-MEL-5 melanoma
  GI50: 1620 nM and 1560 nM
  TGI: 3010 nM and 2980 nM
SNB-75 CNS
  GI50: 1050 nM
  TGI: 2360 nM
OVCAR-4 ovarian
  GI50: 6950 nM and 1450 nM
  TGI: > 10000 nM and 4090 nM
SNB-19 CNS
  GI50: 4240 nM and 1790 nM
  TGI: > 10000 nM and 3530 nM
NCI-H460 lung
  GI50: 2370 nM and 1570 nM
  TGI: 9270 nM and 3090 nM
SF-268 CNS
  GI50: 2250 nM and 1450 nM
  TGI: > 10000 nM and 2870 nM
OVCAR-5 ovarian
  GI50: 1850 nM and 1310 nM
  TGI: > 10000 nM and 2730 nM
HCT-15 colon
  GI50: 1870 nM and 1320 nM
  TGI: 6670 nM and 2930 nM
CAKI-1 renal
  GI50: 8530 nM and 1560 nM
  TGI: > 10000 nM and 3070 nM
HT29 colon
  GI50: 971 nM and 1060 nM
  TGI: 3380 nM and 2460 nM
UACC-62 melanoma
  GI50: 1520 nM and 1600 nM
  TGI: 3030 nM and 3100 nM
U251 CNS
  GI50: 1640 nM and 1540 nM
  TGI: 3290 nM and 2950 nM
NCI/ADR-RES ovarian
  GI50: 4810 nM and 2020 nM
  TGI: > 10000 nM and 4540 nM
UACC-257 melanoma
  GI50: 3720 nM and 1420 nM
  TGI: > 10000 nM and 2820 nM
HCC-2998 colon
  GI50: 1490 nM and 1590 nM
  TGI: 3000 nM and 3180 nM
SK-OV-3 ovarian
  GI50: 6650 nM and 1700 nM
  TGI: > 10000 nM and 3190 nM
SK-MEL-28 melanoma
  GI50: 1600 nM and 1580 nM
  TGI: 3150 nM and 2950 nM
NCI-H522 lung
  GI50: 1600 nM and 1700 nM
  TGI: 3360 nM and 3240 nM
ACHN renal
  GI50: 2250 nM and 1420 nM
  TGI: > 10000 nM and 2800 nM
